Kd data for four compounds are collected here from ChEMBL document CHEMBL4316627, “Modulation of the NOD-like receptors NOD1 and NOD2: A chemist's perspective” (Bioorg Med Chem Lett, 2019).

The target in assay [1] is Nucleotide-binding oligomerization domain-containing protein 2 (Homo sapiens, UniProt Q9HC29). In words: Binding affinity to human NOD2 LRR domain expressed in Escherichia coli by SPR assay.
A short description of assay [2]: Binding affinity to Jack bean Concanavalin A by SPR assay. Also noted: species or system Canavalia ensiformis. Background: In SPR one partner is held on a chip, and binding of the other changes the refractive index at the surface.
For assay [3], the target named is T1, Nucleotide-binding oligomerization domain-containing protein 1 (Homo sapiens, UniProt Q9Y239).
T1 sequence (Q9Y239 whole entry): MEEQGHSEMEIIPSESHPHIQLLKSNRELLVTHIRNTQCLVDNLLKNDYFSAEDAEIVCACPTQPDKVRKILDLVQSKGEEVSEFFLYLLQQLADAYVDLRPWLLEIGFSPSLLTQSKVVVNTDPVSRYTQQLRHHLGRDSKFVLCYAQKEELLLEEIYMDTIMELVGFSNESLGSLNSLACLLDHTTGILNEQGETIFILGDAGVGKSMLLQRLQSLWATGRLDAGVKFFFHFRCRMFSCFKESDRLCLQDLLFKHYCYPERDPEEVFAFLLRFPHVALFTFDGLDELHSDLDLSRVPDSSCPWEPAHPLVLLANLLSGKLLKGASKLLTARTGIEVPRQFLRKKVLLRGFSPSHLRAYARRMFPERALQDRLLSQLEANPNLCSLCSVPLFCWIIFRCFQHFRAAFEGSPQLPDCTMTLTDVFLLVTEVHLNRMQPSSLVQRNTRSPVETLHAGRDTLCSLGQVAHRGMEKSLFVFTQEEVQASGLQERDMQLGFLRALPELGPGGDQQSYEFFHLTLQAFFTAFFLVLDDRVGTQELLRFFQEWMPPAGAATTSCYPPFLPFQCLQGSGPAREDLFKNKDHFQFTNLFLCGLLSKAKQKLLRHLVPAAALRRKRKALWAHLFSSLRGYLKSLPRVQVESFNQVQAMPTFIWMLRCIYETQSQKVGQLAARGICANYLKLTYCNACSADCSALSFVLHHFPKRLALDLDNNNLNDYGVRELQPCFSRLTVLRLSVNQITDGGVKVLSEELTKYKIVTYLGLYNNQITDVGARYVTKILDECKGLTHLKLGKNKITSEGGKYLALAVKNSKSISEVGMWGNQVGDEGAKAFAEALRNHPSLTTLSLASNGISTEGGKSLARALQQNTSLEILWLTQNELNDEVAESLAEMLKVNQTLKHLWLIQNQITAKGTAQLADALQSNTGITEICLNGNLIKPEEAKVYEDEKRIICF
Nature of the assay: Binding affinity to NOD1 LRR domain (unknown origin).

A further assay has as its target T2, Jacalin (Artocarpus heterophyllus, UniProt Q38720).
T2 sequence (Q38720 whole entry): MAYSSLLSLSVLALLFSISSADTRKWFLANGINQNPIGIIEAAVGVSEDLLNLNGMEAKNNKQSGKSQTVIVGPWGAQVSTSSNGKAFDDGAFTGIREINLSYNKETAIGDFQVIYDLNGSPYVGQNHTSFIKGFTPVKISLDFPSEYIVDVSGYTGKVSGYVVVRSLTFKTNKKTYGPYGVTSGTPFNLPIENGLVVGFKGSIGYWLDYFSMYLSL
Nature of the assay: Binding affinity to jackfruit jacalin by SPR assay.

Chain of Nucleotide-binding oligomerization domain-containing protein 2 (Q9HC29 whole entry, the tested form may be a part): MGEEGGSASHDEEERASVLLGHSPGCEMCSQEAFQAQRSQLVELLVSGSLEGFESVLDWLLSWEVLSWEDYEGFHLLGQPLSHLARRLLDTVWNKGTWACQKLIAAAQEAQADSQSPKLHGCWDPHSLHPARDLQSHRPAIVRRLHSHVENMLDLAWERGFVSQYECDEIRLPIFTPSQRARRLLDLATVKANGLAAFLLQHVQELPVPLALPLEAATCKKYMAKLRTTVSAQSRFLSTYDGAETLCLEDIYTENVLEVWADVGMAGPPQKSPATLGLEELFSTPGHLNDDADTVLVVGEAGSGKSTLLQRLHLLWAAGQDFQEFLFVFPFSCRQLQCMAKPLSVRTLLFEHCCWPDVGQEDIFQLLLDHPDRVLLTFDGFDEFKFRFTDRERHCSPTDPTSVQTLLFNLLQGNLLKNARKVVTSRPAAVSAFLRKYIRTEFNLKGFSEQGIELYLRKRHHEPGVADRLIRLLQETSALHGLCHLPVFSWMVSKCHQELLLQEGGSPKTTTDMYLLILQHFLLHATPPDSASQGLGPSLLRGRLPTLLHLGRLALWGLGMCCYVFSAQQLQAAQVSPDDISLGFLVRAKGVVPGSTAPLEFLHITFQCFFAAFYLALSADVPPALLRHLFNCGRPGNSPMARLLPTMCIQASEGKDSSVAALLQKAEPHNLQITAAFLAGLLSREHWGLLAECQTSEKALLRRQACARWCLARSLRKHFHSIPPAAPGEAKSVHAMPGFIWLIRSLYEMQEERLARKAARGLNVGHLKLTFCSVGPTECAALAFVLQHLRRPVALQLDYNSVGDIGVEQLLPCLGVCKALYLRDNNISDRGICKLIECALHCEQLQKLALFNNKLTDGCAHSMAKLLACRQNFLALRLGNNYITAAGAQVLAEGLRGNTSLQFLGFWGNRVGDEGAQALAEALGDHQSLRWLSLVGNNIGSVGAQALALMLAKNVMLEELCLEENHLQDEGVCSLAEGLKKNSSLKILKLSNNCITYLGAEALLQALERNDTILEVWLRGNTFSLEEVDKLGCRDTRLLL

`CC(=O)N[C@H]1C(O)O[C@H](CO)[C@@H](O)[C@@H]1O[C@H](C)C(=O)N[C@@H](C)C(=O)N[C@H](CCC(=O)O)C(N)=O` (some centres undefined) [MURAMYL DIPEPTIDE] had a Kd in assay [1] of 0.2 µM.

Compound `OC[C@H]1OC(O)[C@@H](O)[C@@H](O)[C@@H]1O` (stereo partly drawn) [D-MANNOSE] showed a dissociation constant Kd in assay [2] of 200 µM.

As for `C[C@H](N)C(=O)N[C@H](CCC(=O)N[C@@H](CCC[C@@H](N)C(=O)O)C(=O)O)C(N)=O`, in assay [3], the Kd was found to be 35 µM.

Compound `O=C[C@H](O)[C@@H](O)[C@@H](O)[C@H](O)CO` [GALACTOSE] came in with a Kd on Jacalin of 16 µM.

By Kd is commonly meant the concentration at which binding is half-saturated. High values mean a looser complex, low ones a tighter complex.
